The values that follow come from patent publication US7728003B2, “5-oxo-5,8-dihydro-pyrido-pyrimidines as inhibitors of c-fms kinase” (Janssen Pharmaceutica N.V., priority 2005, dated 2010).

SMILES strings stand for the structures.

For this test, the target named is c-fms (Homo sapiens, UniProt P07333). The test is described as follows: c-fms autophosphorylation, fluorescence polarization competition immunoassay. Conditions: 10 nM c-fms, 1 mM ATP; for inhibition at 0.1 µM: test concentration 0.1 μM, read-out: c-fms Autophosphorylation Percent Inhibition, % @ 0.1 μM; for inhibition at 1 µM: test concentration 1 μM, read-out: c-fms Autophosphorylation Percent Inhibition, % @ 1 μM; for IC50: average of three independent measurements. The test is classed as biochemical. How it is done: The assay buffer used was 100 mM 4-(2-hydroxyethyl)piperazine 1-ethanesulfonic acid (HEPES), pH 7.5, 1 mM 1,4-dithio-DL-threitol (DTT), 0.01% (v/v) Tween-20. Compounds were diluted in assay buffer containing 4% dimethylsulfoxide (DMSO) just prior to the assay. To each well, 5 μL of compound were added followed by the addition of 3 μL of a mix containing 33 nM c-fms and 16.7 mM MgCl2 (Sigma) in assay buffer. The kinase reaction was initiated by adding 2 μL of 5 mM ATP (Sigma) in assay buffer. The final concentrations in the assay were 10 nM c-fms, 1 mM ATP, 5 mM MgCl2, 2% DMSO. Control reactions were ran in each plate: in positive and negative control wells, assay buffer (made 4% in DMSO) was substituted for the compound; in addition, positive control wells received 1.2 μL of 50 mM ethylenediaminetetraaceticacid (EDTA).
c-fms, sequence (P07333 20-972): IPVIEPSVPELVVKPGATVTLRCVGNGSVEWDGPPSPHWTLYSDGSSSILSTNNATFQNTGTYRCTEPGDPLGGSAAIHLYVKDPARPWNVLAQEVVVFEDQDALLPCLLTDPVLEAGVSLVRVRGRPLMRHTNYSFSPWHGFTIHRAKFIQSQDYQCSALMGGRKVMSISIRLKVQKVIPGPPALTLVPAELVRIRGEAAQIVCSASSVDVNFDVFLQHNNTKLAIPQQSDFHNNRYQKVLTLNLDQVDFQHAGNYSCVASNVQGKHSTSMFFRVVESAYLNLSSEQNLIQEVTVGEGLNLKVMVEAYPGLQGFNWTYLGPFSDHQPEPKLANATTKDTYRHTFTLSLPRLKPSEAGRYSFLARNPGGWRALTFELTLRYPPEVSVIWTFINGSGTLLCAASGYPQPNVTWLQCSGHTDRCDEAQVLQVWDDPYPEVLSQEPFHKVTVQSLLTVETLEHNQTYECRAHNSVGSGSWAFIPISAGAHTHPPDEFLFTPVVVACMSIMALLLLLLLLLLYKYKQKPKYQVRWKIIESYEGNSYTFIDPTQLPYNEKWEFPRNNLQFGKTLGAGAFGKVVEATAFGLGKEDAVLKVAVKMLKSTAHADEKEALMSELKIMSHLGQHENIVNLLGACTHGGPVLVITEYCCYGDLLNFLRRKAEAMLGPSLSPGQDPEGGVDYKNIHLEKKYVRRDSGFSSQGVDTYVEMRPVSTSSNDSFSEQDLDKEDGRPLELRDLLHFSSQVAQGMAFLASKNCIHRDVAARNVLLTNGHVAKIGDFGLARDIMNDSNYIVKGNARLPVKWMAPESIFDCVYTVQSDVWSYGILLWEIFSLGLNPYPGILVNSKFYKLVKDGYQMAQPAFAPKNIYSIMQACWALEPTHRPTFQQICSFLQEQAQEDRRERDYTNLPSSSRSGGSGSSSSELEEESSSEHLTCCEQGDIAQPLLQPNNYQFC
The plates were incubated at room temperature for 45 min. At the end of the incubation, the reaction was quenched with 1.2 μL of 50 mM EDTA (EDTA was not added to the positive control wells at this point; see above). Following a 5-min incubation, each well received 10 μL of a 1:1:3 mixture of anti-phosphotyrosine antibody, 10X, PTK green tracer, 10X (vortexed), FP dilution buffer, respectively (all from PanVera, cat. # P2837). The plate was covered, incubated for 30 min at room temperature and the fluorescence polarization was read on the Analyst. The instrument settings were: 485 nm excitation filter; 530 nm emission filter; Z height: middle of well; G factor: 0.93.
The percent inhibition is shown in Table 1 at the indicated test concentration. The IC50 shown in Table 2 are averages of three independent measurements.

As usually defined, the inhibition is the share of the control response that was lost under treatment. Consider `CONC(=O)c1cn(C2CCCCC2)c2nc(NCCCN3CCN(C)CC3)ncc2c1=O` [Cpd 45, 8-Cyclohexyl-2-[3-(4-methyl-piperazin-1-yl)-propylamino]-5-oxo-5,8-dihydro-pyrido[2,3-d]pyrimidine-6-carboxylic acid methoxy-amide], for which the inhibition at 0.1 µM amounted to 43% and the inhibition at 1 µM came to 67%.

As for `CNC(=O)c1cn(C2CCCCC2)c2nc(NCCOC)ncc2c1=O` [Cpd 57, 8-Cyclohexyl-2-(2-methoxy-ethylamino)-5-oxo-5,8-dihydro-pyrido[2,3-d]pyrimidine-6-carboxylic acid methylamide], the inhibition at 0.1 µM came out at 16% and the inhibition at 1 µM is 20%.

For `CNC(=O)c1cn(C2CCCCC2)c2nc(NCCN3CCOCC3)ncc2c1=O` [Cpd 60, 8-Cyclohexyl-2-(2-morpholin-4-yl-ethylamino)-5-oxo-5,8-dihydro-pyrido[2,3-d]pyrimidine-6-carboxylic acid methylamide], the inhibition at 0.1 µM turned out to be 12% and the inhibition at 1 µM stood at 18%.

On to `CNC(=O)c1cn(C2CCCCC2)c2nc(NCCCN3CCOCC3)ncc2c1=O` [Cpd 55, 8-Cyclohexyl-2-(3-morpholin-4-yl-propylamino)-5-oxo-5,8-dihydro-pyrido[2,3-d]pyrimidine-6-carboxylic acid methylamide], for which the inhibition at 0.1 µM stood at 13% and the inhibition at 1 µM turned out to be 23%.

`CONC(=O)c1cn(-c2ccc3c(c2)CCC3)c2nc(NCCN3CCOCC3)ncc2c1=O` [Cpd 26, 8-Indan-5-yl-2-(2-morpholin-4-yl-ethylamino)-5-oxo-5,8-dihydro-pyrido[2,3-d]pyrimidine-6-carboxylic acid methoxy-amide]: the inhibition at 0.1 µM turned out to be 25% and the inhibition at 1 µM amounted to 54%.

For the compound `COCCCNc1ncc2c(=O)c(C(N)=O)cn(C3CCCCC3)c2n1` [Cpd 31, 8-Cyclohexyl-2-(3-methoxy-propylamino)-5-oxo-5,8-dihydro-pyrido[2,3-d]pyrimidine-6-carboxylic acid amide], the inhibition at 0.1 µM is 25% and the inhibition at 1 µM is 62%.

As to `NC(=O)c1cn(-c2ccc3c(c2)CCC3)c2nc(NCCCN3CCCC3=O)ncc2c1=O` [Cpd 8, 8-Indan-5-yl-5-oxo-2-[3-(2-oxo-pyrrolidin-1-yl)-propylamino]-5,8-dihydro-pyrido[2,3-d]pyrimidine-6-carboxylic acid amide], the inhibition at 0.1 µM is 15% and the inhibition at 1 µM came out at 46%.

Turning to `NC(=O)c1cn(C2CCCCC2)c2nc(NCCN3CCCC3)ncc2c1=O` [Cpd 36, 8-Cyclohexyl-5-oxo-2-(2-pyrrolidin-1-yl-ethylamino)-5,8-dihydro-pyrido[2,3-d]pyrimidine-6-carboxylic acid amide], the inhibition at 0.1 µM is 5% and the inhibition at 1 µM is 49%.

Turning to `CONC(=O)c1cn(C2CCCCC2)c2nc(NCCCN3CCCC3)ncc2c1=O` [Cpd 46, 8-Cyclohexyl-5-oxo-2-(3-pyrrolidin-1-yl-propylamino)-5,8-dihydro-pyrido[2,3-d]pyrimidine-6-carboxylic acid methoxy-amide], the inhibition at 0.1 µM came out at 28% and the inhibition at 1 µM was found to be 51%.

With `COCCCNc1ncc2c(=O)c(C(=O)NOC)cn(C3CCCCC3)c2n1` [Cpd 44, 8-Cyclohexyl-2-(3-methoxy-propylamino)-5-oxo-5,8-dihydro-pyrido[2,3-d]pyrimidine-6-carboxylic acid methoxy-amide], the inhibition at 0.1 µM came to 26% and the inhibition at 1 µM came out at 62%.

In the case of `NC(=O)c1cn(C2CCCCC2)c2nc(NCCCN3CCCC3=O)ncc2c1=O` [Cpd 32, 8-Cyclohexyl-5-oxo-2-[3-(2-oxo-pyrrolidin-1-yl)-propylamino]-5,8-dihydro-pyrido[2,3-d]pyrimidine-6-carboxylic acid amide], the inhibition at 0.1 µM is 17% and the inhibition at 1 µM came out at 52%.

Take `NC(=O)c1cn(C2CCCCC2)c2nc(NCCCn3ccnc3)ncc2c1=O` [Cpd 28, 8-Cyclohexyl-2-(3-imidazol-1-yl-propylamino)-5-oxo-5,8-dihydro-pyrido[2,3-d]pyrimidine-6-carboxylic acid amide]: the inhibition at 0.1 µM is 31% and the inhibition at 1 µM worked out at 69%.

Regarding `CN(C)CCCNc1ncc2c(=O)c(C(N)=O)cn(C3CCCCC3)c2n1` [Cpd 29, 8-Cyclohexyl-2-(3-dimethylamino-propylamino)-5-oxo-5,8-dihydro-pyrido[2,3-d]pyrimidine-6-carboxylic acid amide], the inhibition at 0.1 µM turned out to be 22% and the inhibition at 1 µM stood at 65%.

A word on the IC50: it is the concentration that gives 50% inhibition. The low end stands for greater potency in that assay, the high end for weaker potency in that assay. For the compound `CN(C)CCCNc1ncc2c(=O)c(C(N)=O)cn(-c3ccc4c(c3)CCC4)c2n1` [Cpd 6, 2-(3-Dimethylamino-propylamino)-8-indan-5-yl-5-oxo-5,8-dihydro-pyrido[2,3-d]pyrimidine-6-carboxylic acid amide], the IC50 was determined as 7.1 µM.

Turning to `CNC(=O)c1cn(-c2ccc3c(c2)CCC3)c2nc(NCCCN3CCOCC3)ncc2c1=O` [Cpd 13, 8-Indan-5-yl-2-(3-morpholin-4-yl-propylamino)-5-oxo-5,8-dihydro-pyrido[2,3-d]pyrimidine-6-carboxylic acid methylamide], the inhibition at 0.1 µM was found to be 7% and the inhibition at 1 µM worked out at 27%.

For the compound `CNC(=O)c1cn(C2CCCCC2)c2nc(NCCCOC)ncc2c1=O` [Cpd 56, 8-Cyclohexyl-2-(3-methoxy-propylamino)-5-oxo-5,8-dihydro-pyrido[2,3-d]pyrimidine-6-carboxylic acid methylamide], the inhibition at 0.1 µM is 6% and the inhibition at 1 µM came to 23%.

Consider `CNC(=O)c1cn(-c2ccc3c(c2)CCC3)c2nc(NCCCN3CCCC3=O)ncc2c1=O` [Cpd 14, 8-Indan-5-yl-5-oxo-2-[3-(2-oxo-pyrrolidin-1-yl)-propylamino]-5,8-dihydro-pyrido[2,3-d]pyrimidine-6-carboxylic acid methylamide], for which the inhibition at 0.1 µM is 5% and the inhibition at 1 µM was 24%.

`COCCNc1ncc2c(=O)c(C(=O)NOC)cn(-c3ccc4c(c3)CCC4)c2n1` [Cpd 23, 8-Indan-5-yl-2-(2-methoxy-ethylamino)-5-oxo-5,8-dihydro-pyrido[2,3-d]pyrimidine-6-carboxylic acid methoxy-amide]: the inhibition at 0.1 µM amounted to 51% and the inhibition at 1 µM was determined as 65%.

With `CNC(=O)c1cn(-c2ccc3c(c2)CCC3)c2nc(NCCOC)ncc2c1=O` [Cpd 16, 8-Indan-5-yl-2-(2-methoxy-ethylamino)-5-oxo-5,8-dihydro-pyrido[2,3-d]pyrimidine-6-carboxylic acid methylamide], the inhibition at 0.1 µM is 12% and the inhibition at 1 µM came out at 39%.

As for `CONC(=O)c1cn(C2CCCCC2)c2nc(NCCc3ccc(OC)cc3)ncc2c1=O` [Cpd 49, 8-Cyclohexyl-2-[2-(4-methoxy-phenyl)-ethylamino]-5-oxo-5,8-dihydro-pyrido[2,3-d]pyrimidine-6-carboxylic acid methoxy-amide], the inhibition at 0.1 µM came out at 38% and the inhibition at 1 µM came to 68%.

For `NC(=O)c1cn(-c2ccc3c(c2)CCC3)c2nc(NCCN3CCCCC3)ncc2c1=O` [Cpd 2, 8-Indan-5-yl-5-oxo-2-(2-piperidin-1-yl-ethylamino)-5,8-dihydro-pyrido[2,3-d]pyrimidine-6-carboxylic acid amide], the inhibition at 0.1 µM came out at 15% and the inhibition at 1 µM stood at 20%.

As to `NC(=O)c1cn(-c2ccc3c(c2)CCC3)c2nc(NCCCn3ccnc3)ncc2c1=O` [Cpd 3, 2-(3-Imidazol-1-yl-propylamino)-8-indan-5-yl-5-oxo-5,8-dihydro-pyrido[2,3-d]pyrimidine-6-carboxylic acid amide], the IC50 was found to be 2.3 µM.

In the case of `CN1CCN(CCCNc2ncc3c(=O)c(C(N)=O)cn(C4CCCCC4)c3n2)CC1` [Cpd 33, 8-Cyclohexyl-2-[3-(4-methyl-piperazin-1-yl)-propylamino]-5-oxo-5,8-dihydro-pyrido[2,3-d]pyrimidine-6-carboxylic acid amide], the inhibition at 0.1 µM was found to be 31% and the inhibition at 1 µM was 70%.

Turning to `NC(=O)c1cn(C2CCCCC2)c2nc(NCCN3CCCCC3)ncc2c1=O` [Cpd 38, 8-Cyclohexyl-5-oxo-2-(2-piperidin-1-yl-ethylamino)-5,8-dihydro-pyrido[2,3-d]pyrimidine-6-carboxylic acid amide], the inhibition at 0.1 µM was determined as 19% and the inhibition at 1 µM is 56%.

With `CNC(=O)c1cn(-c2ccc3c(c2)CCC3)c2nc(NCCN3CCOCC3)ncc2c1=O` [Cpd 18, 8-Indan-5-yl-2-(2-morpholin-4-yl-ethylamino)-5-oxo-5,8-dihydro-pyrido[2,3-d]pyrimidine-6-carboxylic acid methylamide], the inhibition at 0.1 µM was 12% and the inhibition at 1 µM is 35%.
